Assays:
Type in all cases: in vivo
[1] = tested on: kochia (Kochia scoparia); assay: Test A preemergence, kochia; conditions: 0 to 100 scale (0 no effect, 100 complete control)
Procedure, shortened: (§1)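 Greenhouse assay; ~10 d; visual injury vs untreated control, scored 0 = no effect through 100 = complete control. Post-emergent seedlings at one–two leaves; pre-emergent seeds in loam/sand given a directed soil spray.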

[2] = tested on: barnyardgrass (Echinochloa crus-galli); assay: Test A preemergence, barnyardgrass; conditions: 0 to 100 scale (0 no effect, 100 complete control)
Procedure, shortened: as §1

[3] = tested on: kochia (Kochia scoparia); assay: Test A postemergence, kochia; conditions: visual injury, 0 to 100 scale (0 no effect, 100 complete control), approximately 10 days
Procedure, shortened: as §1

[4] = tested on: ducksalad (Heteranthera limosa); assay: Test B flooded paddy test, ducksalad; conditions: 250 g ai/ha, applied to paddy water, visual rating after 13 to 15 days, scale 0 (no effect) to 100 (complete control)
Procedure, shortened: (§2)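 In-water treatment: compound dosed into 3 cm flood over soil, water level unchanged throughout. Controls run alongside; visual assessment at day 13–15.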

[5] = tested on: ragweed (common ragweed, Ambrosia elatior); assay: Test A postemergence, ragweed; conditions: visual injury, 0 to 100 scale (0 no effect, 100 complete control), approximately 10 days
Procedure, shortened: as §1

[6] = tested on: corn (Zea mays); assay: Test A postemergence, corn; conditions: visual injury, 0 to 100 scale (0 no effect, 100 complete control), approximately 10 days
Procedure, shortened: as §1

[7] = tested on: ryegrass, Italian (Lolium multiflorum); assay: Test A preemergence, Italian ryegrass; conditions: 0 to 100 scale (0 no effect, 100 complete control)
Procedure, shortened: as §1

[8] = tested on: wheat (Triticum aestivum); assay: Test A postemergence, wheat; conditions: visual injury, 0 to 100 scale (0 no effect, 100 complete control), approximately 10 days
Procedure, shortened: as §1

[9] = tested on: galium (catchweed bedstraw, Galium aparine); assay: Test A postemergence, galium; conditions: visual injury, 0 to 100 scale (0 no effect, 100 complete control), approximately 10 days
Procedure, shortened: as §1

[10] = tested on: rice (Oryza sativa); assay: Test B flooded paddy test, rice; conditions: 250 g ai/ha, applied to paddy water, visual rating after 13 to 15 days, scale 0 (no effect) to 100 (complete control)
Procedure, shortened: as §2

[11] = tested on: foxtail, giant (Setaria faberii); assay: Test A postemergence, giant foxtail; conditions: visual injury, 0 to 100 scale (0 no effect, 100 complete control), approximately 10 days
Procedure, shortened: as §1

[12] = tested on: foxtail, giant (Setaria faberii); assay: Test A preemergence, giant foxtail; conditions: 0 to 100 scale (0 no effect, 100 complete control)
Procedure, shortened: as §1

[13] = tested on: blackgrass (Alopecurus myosuroides); assay: Test A postemergence, blackgrass; conditions: visual injury, 0 to 100 scale (0 no effect, 100 complete control), approximately 10 days
Procedure, shortened: as §1

[14] = tested on: ragweed (common ragweed, Ambrosia elatior); assay: Test A preemergence, ragweed; conditions: 0 to 100 scale (0 no effect, 100 complete control)
Procedure, shortened: as §1

[15] = tested on: barnyardgrass (Echinochloa crus-galli); assay: Test B flooded paddy test, barnyardgrass; conditions: 250 g ai/ha, applied to paddy water, visual rating after 13 to 15 days, scale 0 (no effect) to 100 (complete control)
Procedure, shortened: as §2

[16] = tested on: pigweed (Amaranthus retroflexus); assay: Test A preemergence, pigweed; conditions: 0 to 100 scale (0 no effect, 100 complete control)
Procedure, shortened: as §1

[17] = tested on: sedge, umbrella (small-flower umbrella sedge, Cyperus difformis); assay: Test B flooded paddy test, umbrella sedge; conditions: 250 g ai/ha, applied to paddy water, visual rating after 13 to 15 days, scale 0 (no effect) to 100 (complete control)
Procedure, shortened: as §2

[18] = tested on: pigweed (Amaranthus retroflexus); assay: Test A postemergence, pigweed; conditions: visual injury, 0 to 100 scale (0 no effect, 100 complete control), approximately 10 days
Procedure, shortened: as §1

[19] = tested on: barnyardgrass (Echinochloa crus-galli); assay: Test A postemergence, barnyardgrass; conditions: visual injury, 0 to 100 scale (0 no effect, 100 complete control), approximately 10 days
Procedure, shortened: as §1

[20] = tested on: ryegrass, Italian (Lolium multiflorum); assay: Test A postemergence, Italian ryegrass; conditions: visual injury, 0 to 100 scale (0 no effect, 100 complete control), approximately 10 days
Procedure, shortened: as §1

SMILES	Plant response rating, Kochia ([1]; 125 g ai/ha)	Plant response rating, Kochia ([1]; 500 g ai/ha)	Plant response rating, Barnyardgrass ([2]; 125 g ai/ha)	Plant response rating, Kochia ([3]; 125 g ai/ha)	Plant response rating, Kochia ([3]; 500 g ai/ha)	Plant response rating, Ducksalad (Flood) [4]	Plant response rating, Ragweed ([5]; 125 g ai/ha)	Plant response rating, Ragweed ([5]; 500 g ai/ha)	Plant response rating, Corn ([6]; 125 g ai/ha)	Plant response rating, Corn ([6]; 500 g ai/ha)	Plant response rating, Ryegrass, Italian ([7]; 125 g ai/ha)	Plant response rating, Ryegrass, Italian ([7]; 500 g ai/ha)	Plant response rating, Wheat ([8]; 125 g ai/ha)	Plant response rating, Wheat ([8]; 500 g ai/ha)	Plant response rating, Galium ([9]; 125 g ai/ha)	Plant response rating, Galium ([9]; 500 g ai/ha)	Plant response rating, Rice (Flood) [10]	Plant response rating, Foxtail, Giant ([11]; 125 g ai/ha)	Plant response rating, Foxtail, Giant ([11]; 500 g ai/ha)	Plant response rating, Foxtail, Giant ([12]; 125 g ai/ha)	further results
CN1CC(c2cccc(Oc3ccc(F)cc3)c2)C(C(=O)Nc2ccccc2F)C1=O (single isomer, unassigned) [Compound 45]	0	20	80	40	60	70	0	0	0	50	30	80	0	20	60	60	15	80	80	90	Plant response rating, Barnyardgrass ([2]; 500 g ai/ha): 80; Plant response rating, Foxtail, Giant ([12]; 500 g ai/ha): 90; Plant response rating, Blackgrass ([13]; 125 g ai/ha): 30; Plant response rating, Blackgrass ([13]; 500 g ai/ha): 30; Plant response rating, Ragweed ([14]; 125 g ai/ha): 0; Plant response rating, Ragweed ([14]; 500 g ai/ha): 30; Plant response rating, Barnyardgrass (Flood) [15]: 40; Plant response rating, Pigweed ([16]; 125 g ai/ha): 40; Plant response rating, Pigweed ([16]; 500 g ai/ha): 70; Plant response rating, Sedge, Umbrella (Flood) [17]: 0; Plant response rating, Pigweed ([18]; 125 g ai/ha): 30; Plant response rating, Pigweed ([18]; 500 g ai/ha): 60; Plant response rating, Barnyardgrass ([19]; 125 g ai/ha): 90; Plant response rating, Barnyardgrass ([19]; 500 g ai/ha): 90; Plant response rating, Ryegrass, Italian ([20]; 125 g ai/ha): 0; Plant response rating, Ryegrass, Italian ([20]; 500 g ai/ha): 30
CN1CC(c2cccc(Oc3ccc(F)cc3)c2)C(C(=O)Nc2cccc(F)c2F)C1=O (single isomer, unassigned) [Compound 46]	0	20	70	40	60	30	0	0	40	50	20	80	0	20	60	70	0	70	80	90	Plant response rating, Barnyardgrass ([2]; 500 g ai/ha): 80; Plant response rating, Foxtail, Giant ([12]; 500 g ai/ha): 90; Plant response rating, Blackgrass ([13]; 125 g ai/ha): 0; Plant response rating, Blackgrass ([13]; 500 g ai/ha): 30; Plant response rating, Ragweed ([14]; 125 g ai/ha): 0; Plant response rating, Ragweed ([14]; 500 g ai/ha): 30; Plant response rating, Barnyardgrass (Flood) [15]: 0; Plant response rating, Pigweed ([16]; 125 g ai/ha): 40; Plant response rating, Pigweed ([16]; 500 g ai/ha): 70; Plant response rating, Sedge, Umbrella (Flood) [17]: 0; Plant response rating, Pigweed ([18]; 125 g ai/ha): 50; Plant response rating, Pigweed ([18]; 500 g ai/ha): 70; Plant response rating, Barnyardgrass ([19]; 125 g ai/ha): 90; Plant response rating, Barnyardgrass ([19]; 500 g ai/ha): 90; Plant response rating, Ryegrass, Italian ([20]; 125 g ai/ha): 0; Plant response rating, Ryegrass, Italian ([20]; 500 g ai/ha): 30
O=C1NCC(c2cccc(Oc3ccc(C(F)(F)F)cn3)c2)C1C(=O)Nc1cccc(F)c1F (single isomer, unassigned) [Compound 47]	0	0	50	0	60	0	0	0	20	80	0	70	0	30	60	70	0	60	80	90	Plant response rating, Barnyardgrass ([2]; 500 g ai/ha): 80; Plant response rating, Foxtail, Giant ([12]; 500 g ai/ha): 90; Plant response rating, Blackgrass ([13]; 125 g ai/ha): 0; Plant response rating, Blackgrass ([13]; 500 g ai/ha): 20; Plant response rating, Ragweed ([14]; 125 g ai/ha): 0; Plant response rating, Ragweed ([14]; 500 g ai/ha): 60; Plant response rating, Barnyardgrass (Flood) [15]: 0; Plant response rating, Pigweed ([16]; 125 g ai/ha): 0; Plant response rating, Pigweed ([16]; 500 g ai/ha): 50; Plant response rating, Sedge, Umbrella (Flood) [17]: 0; Plant response rating, Pigweed ([18]; 125 g ai/ha): 60; Plant response rating, Pigweed ([18]; 500 g ai/ha): 70; Plant response rating, Barnyardgrass ([19]; 125 g ai/ha): 70; Plant response rating, Barnyardgrass ([19]; 500 g ai/ha): 90; Plant response rating, Ryegrass, Italian ([20]; 125 g ai/ha): 0; Plant response rating, Ryegrass, Italian ([20]; 500 g ai/ha): 30
O=C1NCC(c2cccc(Oc3ccc(F)cn3)c2)C1C(=O)Nc1ccccc1F (single isomer, unassigned) [Compound 49]	20	70	90	0	0	100	0	40	30	40	40	70	0	40	20	70	0	70	90	90	Plant response rating, Barnyardgrass ([2]; 500 g ai/ha): 90; Plant response rating, Foxtail, Giant ([12]; 500 g ai/ha): 90; Plant response rating, Blackgrass ([13]; 125 g ai/ha): 0; Plant response rating, Blackgrass ([13]; 500 g ai/ha): 40; Plant response rating, Ragweed ([14]; 125 g ai/ha): 0; Plant response rating, Ragweed ([14]; 500 g ai/ha): 40; Plant response rating, Barnyardgrass (Flood) [15]: 0; Plant response rating, Pigweed ([16]; 125 g ai/ha): 0; Plant response rating, Pigweed ([16]; 500 g ai/ha): 20; Plant response rating, Sedge, Umbrella (Flood) [17]: 0; Plant response rating, Pigweed ([18]; 125 g ai/ha): 0; Plant response rating, Pigweed ([18]; 500 g ai/ha): 20; Plant response rating, Barnyardgrass ([19]; 125 g ai/ha): 80; Plant response rating, Barnyardgrass ([19]; 500 g ai/ha): 90; Plant response rating, Ryegrass, Italian ([20]; 125 g ai/ha): 0; Plant response rating, Ryegrass, Italian ([20]; 500 g ai/ha): 50
CN1CC(c2cccc(Sc3ccccc3)c2)C(C(=O)Nc2cccc(F)c2F)C1=O (single isomer, unassigned) [Compound 51]	20	50	20	0	30	40	0	20	0	30	0	20	0	20	40	50	0	10	40	90	Plant response rating, Foxtail, Giant ([12]; 500 g ai/ha): 90; Plant response rating, Blackgrass ([13]; 125 g ai/ha): 0; Plant response rating, Blackgrass ([13]; 500 g ai/ha): 0; Plant response rating, Ragweed ([14]; 125 g ai/ha): 0; Plant response rating, Ragweed ([14]; 500 g ai/ha): 0; Plant response rating, Barnyardgrass (Flood) [15]: 0; Plant response rating, Pigweed ([16]; 125 g ai/ha): 0; Plant response rating, Pigweed ([16]; 500 g ai/ha): 0; Plant response rating, Sedge, Umbrella (Flood) [17]: 0; Plant response rating, Pigweed ([18]; 125 g ai/ha): 0; Plant response rating, Pigweed ([18]; 500 g ai/ha): 0; Plant response rating, Barnyardgrass ([19]; 125 g ai/ha): 0; Plant response rating, Barnyardgrass ([19]; 500 g ai/ha): 30; Plant response rating, Ryegrass, Italian ([20]; 125 g ai/ha): 20; Plant response rating, Ryegrass, Italian ([20]; 500 g ai/ha): 30
